Source: patent US7674819B2 (Warner-Lambert Company LLC, priority 2005, dated 2010)
Substitutions are numbered along the chain they refer to. Like-named read-outs stand apart in the source and are kept apart here.

Tests used:
androgen receptor = target: T1, androgen receptor (Homo sapiens, UniProt P10275); test: AR Antagonist Cell Assay (MDA-MB453-MMTV clone 54-19, luciferase reporter); assay type: cell-based; settings: inhibition of induction by DHT (final concentration at 100 μM), 17 hr, compound 0.32-1000 nM, mean of multiple tests
T1 sequence (P10275 1-920 Q868H): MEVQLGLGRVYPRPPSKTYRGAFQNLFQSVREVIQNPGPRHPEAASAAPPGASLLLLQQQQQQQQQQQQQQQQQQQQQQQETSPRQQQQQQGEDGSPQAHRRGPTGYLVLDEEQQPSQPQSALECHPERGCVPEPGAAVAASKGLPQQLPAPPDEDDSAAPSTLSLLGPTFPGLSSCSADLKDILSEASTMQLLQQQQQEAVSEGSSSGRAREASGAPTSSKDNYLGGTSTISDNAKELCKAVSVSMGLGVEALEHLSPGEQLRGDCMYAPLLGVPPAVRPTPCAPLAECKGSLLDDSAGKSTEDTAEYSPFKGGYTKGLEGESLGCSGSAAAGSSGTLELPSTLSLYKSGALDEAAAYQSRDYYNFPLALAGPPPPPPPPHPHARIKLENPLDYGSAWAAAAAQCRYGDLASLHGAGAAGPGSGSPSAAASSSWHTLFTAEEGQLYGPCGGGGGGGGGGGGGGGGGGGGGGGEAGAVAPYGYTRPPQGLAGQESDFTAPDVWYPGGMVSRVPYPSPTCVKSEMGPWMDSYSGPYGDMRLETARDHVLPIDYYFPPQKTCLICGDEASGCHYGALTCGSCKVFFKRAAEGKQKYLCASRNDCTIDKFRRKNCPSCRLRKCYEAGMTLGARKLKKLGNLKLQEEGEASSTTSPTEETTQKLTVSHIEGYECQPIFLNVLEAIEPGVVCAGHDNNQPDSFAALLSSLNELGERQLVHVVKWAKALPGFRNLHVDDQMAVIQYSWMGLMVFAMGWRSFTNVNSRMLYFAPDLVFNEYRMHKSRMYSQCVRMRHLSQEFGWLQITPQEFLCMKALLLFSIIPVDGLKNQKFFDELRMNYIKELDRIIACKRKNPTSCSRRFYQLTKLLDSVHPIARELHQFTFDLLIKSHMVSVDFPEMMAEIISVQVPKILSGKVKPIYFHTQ
Method: The compounds ability to antagonize the effects of androgen on the androgen receptor were determined in a whole cell assay as described immediately below.
Experimental Procedure for AR Antagonist Cell Assay
This cell line is a stable transfected cell line with MDA-MB453 cell background (a human breast tumor cell line expressing androgen receptor). A MMTV minimal promoter containing ARE was first cloned in front of a firefly luciferase reporter gene. Then the cascade was cloned into transfection vector pUV120puro. […] Puromycin resistant stable cell line was selected.
Cell Culture Media and Reagents:
Plating medium: DMEM (phenol red free), 10% charcoal treated HyClone serum, 1% L-glutamine
Assay medium: DMEM (phenol red free), 1% charcoal treated HyClone serum, 1% L-glutamine, 1% penicillin/streptomycin
Cells are maintained in culture medium, splitting cells when they reach 80-90% confluence
To test compounds, 10,000 cells/well are plated to opaque 96 cell culture plate in 100 ul/well plating medium, culture for overnight at 37° C. in cell culture incubator
Add 10 ul/well freshly prepared DHT (final concentration at […]) to each well, incubate at 37° C. for 17 hr (overnight)
Add 50 ul/well 3× luciferase buffer, incubate at room temperature for 5 minutes, then count on Luminometer
The results are reported as the mean of multiple tests described below (the numbers of tests are indicated in the footnote). N.D. denotes that the compound was not tested.

hAR = target: T2, hAR (Homo sapiens, UniProt P10275); test: Competitive binding of 3H-DHT to baculovirus/Sf9 generated hAR extracts; settings: one hour at 4° C., mean of multiple tests
T2 sequence (P10275 1-920): T1 sequence (P10275 1-920 Q868H) with H868Q
Procedure, shortened: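 Baculovirus/Sf9-expressed hAR extract incubated with test compound, hydroxylapatite and 1 nM 3H-DHT tracer for 1 h at 4° C, then washed free of unbound tracer. Affinity given as concentration inhibiting half of maximal 3H-DHT binding.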

[1] = concentration at which one half of maximum binding of 1 nM 3H-DHT to hAR is inhibited, read-out: IC50
[2] = IC50, concentration at which one half of maximum binding of 1 nM 3H-DHT to hAR is inhibited

SMILES | IC50 (androgen receptor; read-out: IC50) [nM] | IC50 (hAR; [1]) [nM] | IC50 (hAR; [2]) [nM] | IC50 (androgen receptor) [nM]
COC(=O)c1ccc(CN2CC(C)(C)C(Oc3ccc(C#N)c(C(F)(F)F)c3)C2=O)o1 (centres unmarked) [Example 28, 5-[3-(4-Cyano-3-trifluoromethyl-phenoxy)-4,4-dimethyl-2-oxo-pyrrolidin-1-ylmethyl]-furan-2-carboxylic acid methyl ester] | 317 | 310 |  | 
CC1(C)CN(Cc2ccc3nonc3c2)C(=O)C1Oc1ccc(C#N)c(C(F)(F)F)c1 (centres unmarked) [Example 57, 4-(1-Benzo[1,2,5]oxadiazol-5-ylmethyl-4,4-dimethyl-2-oxo-pyrrolidin-3-yloxy)-2-trifluoromethyl-benzonitrile] | > 1000 |  | 31 | 
CCOC(=O)c1ccc(CN2CC(C)(C)C(Oc3ccc(C#N)c(C(F)(F)F)c3)C2=O)o1 (centres unmarked) [Example 29, 5-[3-(4-Cyano-3-trifluoromethyl-phenoxy)-4,4-dimethyl-2-oxo-pyrrolidin-1-ylmethyl]-furan-2-carboxylic acid ethyl ester] |  |  | 119 | 124
CC1(C)CN(C(=O)c2ccc(C#N)cc2)C(=O)C1Oc1ccc(C#N)c(C(F)(F)F)c1 (centres unmarked) [Example 104, 4-[1-(4-Cyano-benzoyl)-4,4-dimethyl-2-oxo-pyrrolidin-3-yloxy]-2-trifluoromethyl-benzonitrile] |  | 248 |  | 37
CC1(C)CN(Cc2nnc(-c3ccccc3Cl)o2)C(=O)C1Oc1ccc(C#N)c(C(F)(F)F)c1 (centres unmarked) [Example 127, 4-{1-(5-(2-Chloro-phenyl)-[1,3,4]oxadiazol-2-ylmethyl]-4,4-dimethyl-2-oxo-pyrrolidin-3-yloxy}-2-trifluoromethyl-benzonitrile] | > 1000 | 198 |  | 
CC1(C)CN(Cc2ccccc2O)C(=O)C1Oc1ccc(C#N)c(C(F)(F)F)c1 (centres unmarked) [Example 11, 4-[1-(2-Hydroxy-benzyl)-4,4-dimethyl-2-oxo-pyrrolidin-3-yloxy]-2-trifluoromethyl-benzonitrile] |  |  | 17 | 14
CC1(C)CN(Cc2cccc3nsnc23)C(=O)C1Oc1ccc(C#N)c(C(F)(F)F)c1 (centres unmarked) [Example 41, 4-(1-Benzo[1,2,5]thiadiazol-4-ylmethyl-4,4-dimethyl-2-oxo-pyrrolidin-3-yloxy)-2-trifluoromethyl-benzonitrile] | 72 | 107 |  | 
CCCCN1CC(C)(C)C(Oc2ccc(C#N)c(C(F)(F)F)c2)C1=O (centres unmarked) [Example 19, 4-(1-Butyl-4,4-dimethyl-2-oxo-pyrrolidin-3-yloxy)-2-trifluoromethyl-benzonitrile] |  |  | 152 | 19
CC1(C)CN(C(=O)c2cccc(C#N)c2)C(=O)C1Oc1ccc(C#N)c(C(F)(F)F)c1 (centres unmarked) [Example 107, 4-[1-(3-Cyano-benzoyl)-4,4-dimethyl-2-oxo-pyrrolidin-3-yloxy]-2-trifluoromethyl-benzonitrile] | 653 |  | 68 | 
CSCN1CC(C)(C)C(Oc2ccc(C#N)c(C(F)(F)F)c2)C1=O (centres unmarked) [Example 99, 4-(4,4-Dimethyl-1-methylsulfanylmethyl-2-oxo-pyrrolidin-3-yloxy)-2-trifluoromethyl-benzonitrile] |  | 113 |  | 36
CC1(C)CN(Cc2ccccc2F)C(=O)C1Oc1ccc(C#N)c(C(F)(F)F)c1 (centres unmarked) [Example 16, 4-[1-(2-Fluoro-benzyl)-4,4-dimethyl-2-oxo-pyrrolidin-3-yloxy]-2-trifluoromethyl-benzonitrile] |  |  | 26 | 43
CC1(C)CN(Cc2cccc(O)c2)C(=O)C1Oc1ccc(C#N)c(C(F)(F)F)c1 (centres unmarked) [Example 13, 4-[1-(3-Hydroxy-benzyl)-4,4-dimethyl-2-oxo-pyrrolidin-3-yloxy]-2-trifluoromethyl-benzonitrile] |  |  | 11 | 313
CC1(C)CN(C2CCCC2)C(=O)C1Oc1ccc(C#N)c(C(F)(F)F)c1 (centres unmarked) [Example 98, 4-(1-Cyclopentyl-4,4-dimethyl-2-oxo-pyrrolidin-3-yloxy)-2-trifluoromethyl-benzonitrile] | 315 | 169 |  | 
CC1(C)CN(Cc2ccccc2C#N)C(=O)C1Oc1ccc(C#N)c(C(F)(F)F)c1 (centres unmarked) [Example 47, 4-[1-(2-Cyano-benzyl)-4,4-dimethyl-2-oxo-pyrrolidin-3-yloxy]-2-trifluoromethyl-benzonitrile] |  |  | 83 | 42
COc1ccccc1-c1nnc(CN2CC(C)(C)C(Oc3ccc(C#N)c(C(F)(F)F)c3)C2=O)o1 (centres unmarked) [Example 121, 4-{1-[5-(2-Methoxy-phenyl)-[1,3,4]oxadiazol-2-ylmethyl]-4,4-dimethyl-2-oxo-pyrrolidin-3-yloxy}-2-trifluoromethyl-benzonitrile] | 166 | 131 |  | 
COc1ccc(-c2nnc(CN3CC(C)(C)C(Oc4ccc(C#N)c(C(F)(F)F)c4)C3=O)o2)cc1 (centres unmarked) [Example 119, 4-{1-[5-(4-Methoxy-phenyl)-[1,3,4]oxadiazol-2-ylmethyl]-4,4-dimethyl-2-oxo-pyrrolidin-3-yloxy}-2-trifluoromethyl-benzonitrile] | 199 |  | 80 | 
CC1(C)CN(Cc2nnc(-c3cccc(F)c3)o2)C(=O)C1Oc1ccc(C#N)c(C(F)(F)F)c1 (centres unmarked) [Example 115, 4-{1-[5-(3-Fluoro-phenyl)-[1,3,4]oxadiazol-2-ylmethyl]-4,4-dimethyl-2-oxo-pyrrolidin-3-yloxy}-2-trifluoromethyl-benzonitrile] | 415 | 142 |  | 
CC(c1nnc(-c2ccccc2O)o1)N1CC(C)(C)C(Oc2ccc(C#N)c(C(F)(F)F)c2)C1=O (centres unmarked) [Example 130, 4-(1-{1-[5-(2-hydroxy-phenyl)-[1,3,4]oxadiazol-2-yl]-ethyl}-4,4-dimethyl-2-oxo-pyrrolidin-3-yloxy)-2-trifluoromethyl-benzonitrile] | 198 |  | 85 | 
CC1(C)CN(S(=O)(=O)c2cccs2)C(=O)C1Oc1ccc(C#N)c(C(F)(F)F)c1 (centres unmarked) [Example 93, 4-[4,4-Dimethyl-2-oxo-1-(thiophene-2-sulfonyl)-pyrrolidin-3-yloxy]-2-trifluoromethyl-benzonitrile] | > 1000 |  | 82 | 
